Values of other authors as cited in patent US20020040051A1, “Solid dispersion of ipriflavone for oral administration and its manufacturing methods” (priority 2000, published 2002).
In brackets after ≈: the same amount, converted by molar mass.

Columns and labels:
[1] = cited from earlier work
[2] = 200 mg 3-4 times daily (600-800 mg daily), healthy adult male (18-60 yr); cited from earlier work

CC(C)Oc1ccc2c(=O)c(-c3ccccc3)coc2c1 [compound 1, 3-phenyl-7-isopropoxy-4H-1-benzopyrane-4-one]
water solubility [1]: 1 µg/mL (≈ 3.57 µM)
day of administration on which blood concentration reaches an effective level [2]: 3rd or 4th day
